Measured values reported in patent US9801901B2, “Alginate oligomers for use in overcoming multidrug resistance in bacteria” (priority 2009, dated 2017).
Marks after values point to notes of the source that are not given here.

How the values were obtained:
[1] = tested on: Pseudomonas aeruginosa MDR 301 from Poland (V2); test: MIC assay, CAMHB with alginate oligomer, no visible growth; assay type: cell-based; settings: Pseudomonas aeruginosa, Table 1, V2 MDR 301 PA
[2] = tested on: MDR strains of Pseudomonas aeruginosa, Klebsiella pneumoniae, Burkholderia cepacia, Acinetobacter lwoffii, Acinetobacter baumannii and E. coli; test: MIC assay of Example 2, summary over the strains of Tables 4, 5 and 6; assay type: cell-based; settings: Example 2, Tables 4, 5 and 6
[3] = tested on: PA01 Pseudomonas aeruginosa ATCC 15692; test: MIC assay, two-fold antibiotic dilutions in CAMHB with alginate oligomer, no visible growth; assay type: cell-based
[4] = tested on: V12 5725 (Wales) Klebsiella pneumoniae; test: MIC assay, CAMHB with alginate oligomer, no visible growth; assay type: cell-based
[5] = tested on: V10 (Egypt) Acinetobacter lwoffii; test: as above; assay type: cell-based
V11 5702 (Wales) E. coli = test: as above; assay type: cell-based
[6] = tested on: V23 1322 Burkholderia cepacia; test: as above; assay type: cell-based; settings: Table 6, V23
[7] = tested on: Klebsiella pneumoniae KP05 506 from India (V3); test: as above; assay type: cell-based; settings: for MIC: Klebsiella pneumoniae, Table 1, V3 KP05 506
[8] = tested on: Pseudomonas aeruginosa MDR R22 from China (V1); test: as above; assay type: cell-based; settings: Pseudomonas aeruginosa, Table 1, V1 MDR R22 PA
Text: (§1) The study described in Example 1 was repeated with the following strains of bacteria and antibiotics as detailed in Tables 4, 5 and 6.

[9] = tested on: Pseudomonas aeruginosa CFA 24-1, clinical mucoid strain (R80); test: as above; assay type: cell-based
V22 6056 Acinetobacter = test: as above; assay type: cell-based, Acinetobacter lwoffii
[10] = tested on: Acinetobacter baumannii MDR ACB from Libya (V4); test: as above; assay type: cell-based
Text: as §1
The study described in Example 1 was repeated with the following strains of Acinetobacter baumannii, antibiotics and M-block alginate oligomer in place of OligoG CF-5/20 as detailed in Table 7. The M-block oligomer is 100% M with a DPn of 15 to 18,

MDR Pseudomonas strains = test: MIC assay of Example 1, summary over the MDR Pseudomonas strains; assay type: cell-based, Pseudomonas aeruginosa
[11] = tested on: Pseudomonas aeruginosa ATCC 39324, mucoid type strain (R79); test: MIC assay, CAMHB with alginate oligomer, no visible growth; assay type: cell-based
[12] = tested on: V9 (Egypt) Acinetobacter baumannii; test: as above; assay type: cell-based

CC1(C)C[C@@H]1C(=O)N/C(=C\CCCCSC[C@H](N)C(=O)O)C(=O)O [Primaxin, Imipenem/cilastatin]
128 µg/mL: MIC ([1]; OligoCF-5/20 +10% G) | MIC ([6]; Burkholderia cepacia, Experiment 1 (18-03-10), OligoCF-5/20 0G) | MIC ([6]; Experiment 1 (18-03-10), OligoCF-5/20 +2% G) | MIC ([8]; OligoCF-5/20 0G) | MIC ([8]; OligoCF-5/20 +2% G)
64^† μg/ml: MIC ([6]; Experiment 1 (18-03-10), OligoCF-5/20 +6% G) | MIC ([6]; Experiment 2 (18-03-10), OligoCF-5/20 +10% G)
<0.5 µg/mL: MIC ([4]; Table 5, V12 MDR Kleb pneu, OligoCF-5/20 +2% G) | MIC ([4]; Table 5, V12 MDR Kleb pneu, OligoCF-5/20 +6% G) | MIC ([4]; Table 5, V12 MDR Kleb pneu, OligoCF-5/20 +10% G) | MIC ([5]; Table 5, V10 MDR Acin. lwoff, OligoCF-5/20 +2% G) | MIC ([5]; Table 5, V10 MDR Acin. lwoff, OligoCF-5/20 +6% G) | MIC ([5]; Table 5, V10 MDR Acin. lwoff, OligoCF-5/20 +10% G) | MIC (V11 5702 (Wales) E. coli; Table 5, V11 MDR E.coli, OligoCF-5/20 +2% G) | MIC (V11 5702 (Wales) E. coli; Table 5, V11 MDR E.coli, OligoCF-5/20 +6% G) | MIC (V11 5702 (Wales) E. coli; Table 5, V11 MDR E.coli, OligoCF-5/20 +10% G)
32^† μg/ml: MIC ([6]; Experiment 1 (18-03-10), OligoCF-5/20 +10% G)
< 0.5 µg/mL: MIC ([4]; Klebsiella pneumoniae) | MIC ([5]; Acinetobacter lwoffii) | MIC (V11 5702 (Wales) E. coli; Escherichia coli)
128^† μg/ml: MIC ([6]; Experiment 2 (18-03-10), OligoCF-5/20 +2% G) | MIC ([6]; Experiment 2 (18-03-10), OligoCF-5/20 +6% G) | MIC ([6]; Experiment 3 (19-03-10), OligoCF-5/20 +10% G)
256 µg/mL: MIC ([1]; OligoCF-5/20 +2% G) | MIC ([1]; OligoCF-5/20 +6% G) | MIC ([6]; Burkholderia cepacia, Experiment 2 (18-03-10), OligoCF-5/20 0G) | MIC ([6]; Burkholderia cepacia, Experiment 3 (19-03-10), OligoCF-5/20 0G) | MIC ([6]; Experiment 3 (19-03-10), OligoCF-5/20 +2% G) | MIC ([6]; Experiment 3 (19-03-10), OligoCF-5/20 +6% G)
1 µg/mL: MIC ([12]; Acinetobacter baumannii)
8 µg/mL: MIC (V22 6056 Acinetobacter; Acinetobacter) | MIC (V22 6056 Acinetobacter; Table 5, V22 MDR Acin. lwoff, OligoCF-5/20 +2% G) | MIC (V22 6056 Acinetobacter; Table 5, V22 MDR Acin. lwoff, OligoCF-5/20 +6% G)
more effective: effectiveness when used in combination with the alginate oligomers (MDR Pseudomonas strains)
< 1 µg/mL: MIC ([3]; Pseudomonas aeruginosa, ATCC15692) | MIC ([9]; Pseudomonas aeruginosa) | MIC ([10]; Acinetobacter baumannii) | MIC ([11]; Pseudomonas aeruginosa, ATCC39324)
2 µg/mL: MIC ([12]; Table 5, V9 MDR Acin. baum, OligoCF-5/20 +2% G)
decreasing MICs: change of MIC with increasing amounts of OligoG CF-5/20 [2]
<1 µg/mL: MIC ([3]; Table 1, PA01, OligoCF-5/20 +2% G) | MIC ([3]; Table 1, PA01, OligoCF-5/20 +6% G) | MIC ([3]; Table 1, PA01, OligoCF-5/20 +10% G) | MIC ([9]; Table 1, R80, OligoCF-5/20 +2% G) | MIC ([9]; Table 1, R80, OligoCF-5/20 +6% G) | MIC ([9]; Table 1, R80, OligoCF-5/20 +10% G) | MIC ([10]; Table 1, V4 ACB (Libya), OligoCF-5/20 +2% G) | MIC ([10]; Table 1, V4 ACB (Libya), OligoCF-5/20 +6% G) | MIC ([10]; Table 1, V4 ACB (Libya), OligoCF-5/20 +10% G) | MIC ([11]; Table 1, R79, OligoCF-5/20 +2% G) | MIC ([11]; Table 1, R79, OligoCF-5/20 +6% G) | MIC ([11]; Table 1, R79, OligoCF-5/20 +10% G)
<0.5^† μg/ml: MIC ([12]; Table 5, V9 MDR Acin. baum, OligoCF-5/20 +6% G) | MIC ([12]; Table 5, V9 MDR Acin. baum, OligoCF-5/20 +10% G)
512 µg/mL: MIC ([1]; OligoCF-5/20 0G)
64 µg/mL: MIC ([7]; OligoCF-5/20 +2% G) | MIC ([7]; OligoCF-5/20 +6% G) | MIC ([7]; OligoCF-5/20 +10% G) | MIC ([8]; OligoCF-5/20 +6% G)
inconclusive: effectiveness in conjunction with alginate oligomers ([7]; Example 1, KP05 506)
32 µg/mL: MIC ([7]; OligoCF-5/20 0G) | MIC ([8]; OligoCF-5/20 +10% G)
4^† μg/ml: MIC (V22 6056 Acinetobacter; Table 5, V22 MDR Acin. lwoff, OligoCF-5/20 +10% G)
